# Experimental data published in patent publication US10934309B2, “Tricyclic quinone derivative” (Boston Biomedical, Inc., priority 2014, dated 2021).
# Experiments:
# Type in all cases: cell-based, human
# FaDu cells [1] = assay: Inhibition assay of cancer cell sphere-forming ability (Test Example 2), FaDu; details: FaDu cells, Ultra-Low Attachment plate, serum-free DMEM/F12 with B27, EGF, bFGF, insulin, 4 days, Cell Titer-Glo, read-out: IC50 (μM) FaDu, concentration for 50% inhibition of cell proliferation (Sphere IC50 value)
# Method: (§1) HCT-116 cells (derived from human colon adenocarcinoma), HT-29 cells (derived from human colon cancer), FaDu cells (derived from human hypopharynx cancer) were obtained from American Type Culture Collection (ATCC). […] HCT-116 cells, HT-29 cells, and FaDu cells were seeded onto 384 Well Black Clear Bottom Ultra-Low Attachment Microplate (Corning Cat. […] A test substance was added so that the final concentration of DMSO is 0.1%, and then cultured for 4 days. […] A test shown in Test example 2 was carried out for compounds obtained in the Examples.
# HCT-116 cells [2] = assay: Inhibition assay of cancer cell sphere-forming ability (Test Example 2), HCT-116; details: HCT-116 cells, Ultra-Low Attachment plate, serum-free DMEM/F12 with B27, EGF, bFGF, insulin, 4 days, Cell Titer-Glo, read-out: IC50 (μM) HCT, concentration for 50% inhibition of cell proliferation (Sphere IC50 value)
# Method: as §1
# HT-29 cells [3] = assay: Proliferation inhibition assay of cancer cells (Test Example 1), HT-29; details: HT-29 cells, cultured for 4 days, Cell Titer-Glo, read-out: IC50 (μM) HT, concentration for 50% inhibition of cell proliferation (Bulk IC50 value)
# Method: (§2) HCT-116 cells (derived from human colon adenocarcinoma), HT-29 cells (derived from human colon cancer), and FaDu cells (derived from human hypopharynx cancer) were obtained from American Type Culture Collection (ATCC). […] After cells were seeded at 300-600 cells/well onto black μClear-plate 384 well (Greiner bio-one Cat. No. 781091), a test substance was added such that the final concentration of DMSO is 0.1%, and cultured for 4 days. […] A test shown in Test example 1 was carried out for compounds obtained in the Examples.
# HT-29 cells [4] = assay: Inhibition assay of cancer cell sphere-forming ability (Test Example 2), HT-29; details: HT-29 cells, Ultra-Low Attachment plate, serum-free DMEM/F12 with B27, EGF, bFGF, insulin, 4 days, Cell Titer-Glo, read-out: IC50 (μM) HT, concentration for 50% inhibition of cell proliferation (Sphere IC50 value)
# Method: as §1
# FaDu cells [5] = assay: Proliferation inhibition assay of cancer cells (Test Example 1), FaDu; details: FaDu cells, cultured for 4 days, Cell Titer-Glo, read-out: IC50 (μM) FaDu, concentration for 50% inhibition of cell proliferation (Bulk IC50 value)
# Method: as §2
# HCT-116 cells [6] = assay: Proliferation inhibition assay of cancer cells (Test Example 1), HCT-116; details: HCT-116 cells, cultured for 4 days, Cell Titer-Glo, read-out: IC50 (μM) HCT, concentration for 50% inhibition of cell proliferation (Bulk IC50 value)
# Method: as §2
SMILES,"IC50 (FaDu cells [1]; Homo sapiens, FaDu, 96 h)","IC50 (HCT-116 cells [2]; Homo sapiens, HCT-116, 96 h)","IC50 (HT-29 cells [3]; Homo sapiens, HT-29, 96 h)","IC50 (HT-29 cells [4]; Homo sapiens, HT-29, 96 h)","IC50 (FaDu cells [5]; Homo sapiens, FaDu, 96 h)","IC50 (HCT-116 cells [6]; Homo sapiens, HCT-116, 96 h)",IC50 (HT-29 cells [3]),IC50 (HT-29 cells [4]),IC50 (FaDu cells [1]),IC50 (HCT-116 cells [2]),IC50 (FaDu cells [5]),IC50 (HCT-116 cells [6])
"CC(=O)c1cc2c(o1)C(=O)c1cnccc1C2=O [Example 48, 2-acetylfuro[3,2-g]isoquinoline-4,9-dione]",0.05 µM,0.07 µM,0.62 µM,0.55 µM,0.06 µM,0.07 µM,,,,,,
"CCN(Cc1cc2c(o1)C(=O)c1cccnc1C2=O)C(=O)CC(C)C [Example 9, N-[(4,9-dioxo-4,9-dihydrofuro[2,3-g]quinolin-2-yl)methyl]-N-ethyl-3-methylbutanamide]",0.1 µM,0.28 µM,> 10 µM,0.61 µM,0.6 µM,0.53 µM,,,,,,
"CC(C)(C)OC(=O)NCc1cc2c(s1)C(=O)c1ncccc1C2=O [Example 41, tert-butyl (4,9-dioxo-4,9-dihydrothieno[3,2-g]quinolin-2-yl)methylcarbamate]",0.46 µM,0.83 µM,4.52 µM,3.82 µM,0.78 µM,0.7 µM,,,,,,
"CCOC(c1cc2c(s1)C(=O)c1ccncc1C2=O)C1CC1 (stereo not drawn) [Example 17, 2-[cyclopropyl(ethoxy)methyl]thieno[2,3-g]isoquinoline-4,9-dione]",0.05 µM,0.55 µM,0.87 µM,0.54 µM,0.84 µM,0.41 µM,,,,,,
"O=C1c2cc(CN3CCOCC3)sc2C(=O)c2nccnc21 [Example 59, 7-(morpholin-4-ylmethyl)thieno[2,3-g]quinoxaline-5,9-dione]",0.06 µM,0.05 µM,0.84 µM,0.63 µM,0.36 µM,0.28 µM,,,,,,
"CCN(Cc1ccncc1)Cc1cc2c(s1)C(=O)c1cccnc1C2=O [Example 8, 2-{[ethyl(pyridin-4-ylmethyl)amino]methyl}thieno[2,3-g]quinoline-4,9-dione]",,,,,,,0.83 µM,0.6 µM,0.32 µM,0.41 µM,0.37 µM,0.38 µM
"O=C1c2ccncc2C(=O)c2c(C(=O)N3CCOCC3)csc21 [Example 22, 3-(morpholin-4-ylcarbonyl)thieno[2,3-g]isoquinoline-4,9-dione]",0.31 µM,0.5 µM,0.81 µM,0.16 µM,0.44 µM,0.48 µM,,,,,,
"O=C1c2cc(C(=O)N3CCOCC3)sc2C(=O)c2nccnc21 [Example 57, 7-(morpholin-4-ylcarbonyl)thieno[2,3-g]quinoxaline-5,9-dione]",5.65 µM,4.97 µM,> 10 µM,> 10 µM,8.21 µM,5.71 µM,,,,,,
"CCOC(=O)N(CC)Cc1cc2c(o1)C(=O)c1cccnc1C2=O [Example 11, ethyl [(4,9-dioxo-4,9-dihydrofuro[2,3-g]quinolin-2-yl)methyl]ethylcarbamate]",0.28 µM,0.46 µM,3.85 µM,0.71 µM,0.45 µM,0.49 µM,,,,,,
"CCN(Cc1cc2c(s1)C(=O)c1ccncc1C2=O)C1CCCCC1 [Example 25, 2-{[Cyclohexyl(ethyl)amino]methyl}thieno[2,3-g]isoquinoline-4,9-dione]",0.06 µM,0.8 µM,0.96 µM,< 0.01 µM,0.46 µM,0.69 µM,,,,,,
"O=C1c2cnccc2C(=O)c2sc(CN(CC(F)F)C(=O)C3CCCCC3)cc21 [Example 28, N-(2,2-difluoroethyl)-N-((4,9-dioxo-4,9-dihydrothieno[2,3-g]isoquinolin-2-yl)methyl)cyclohexanecarboxamide]",0.09 µM,0.57 µM,0.63 µM,0.59 µM,0.08 µM,0.47 µM,,,,,,
"CC(=O)c1cc2c(o1)C(=O)c1cccnc1C2=O [Example 42, 2-acetylfuro[2,3-g]quinoline-4,9-dione]",0.08 µM,0.31 µM,0.72 µM,0.59 µM,0.47 µM,0.54 µM,,,,,,
"CCN(Cc1ccncc1)Cc1cc2c(s1)C(=O)c1cccnc1C2=O [Example 7, 2-{[ethyl(pyridin-4-ylmethyl)amino]methyl}thieno[2,3-g]quinoline-4,9-dione]",0.36 µM,0.51 µM,,,0.4 µM,0.4 µM,2.64 µM,3.04 µM,,,,
"O=C(NCC(F)F)c1cc2c(s1)C(=O)c1ncccc1C2=O [Example 40, N-(2,2-difluoroethyl)-4,9-dioxo-4,9-dihydroxythieno[3,2-g]quinoline-2-carboxyamide]",,,,,,,0.55 µM,0.51 µM,0.05 µM,0.08 µM,0.05 µM,0.07 µM

# Continued, in another order:
"IC50 (FaDu cells [1]; Homo sapiens, FaDu, 96 h)","IC50 (HCT-116 cells [2]; Homo sapiens, HCT-116, 96 h)","IC50 (HT-29 cells [3]; Homo sapiens, HT-29, 96 h)","IC50 (HT-29 cells [4]; Homo sapiens, HT-29, 96 h)","IC50 (FaDu cells [5]; Homo sapiens, FaDu, 96 h)","IC50 (HCT-116 cells [6]; Homo sapiens, HCT-116, 96 h)",IC50 (HT-29 cells [3]),IC50 (HT-29 cells [4]),SMILES,IC50 (FaDu cells [1]),IC50 (HCT-116 cells [2]),IC50 (FaDu cells [5]),IC50 (HCT-116 cells [6])
0.83 µM,7.41 µM,> 10 µM,8.98 µM,0.75 µM,2.71 µM,,,"CCOC(=O)/C=C/c1cc2c(s1)C(=O)c1ccncc1C2=O [Example 60, ethyl (E)-3-(4,9-dioxo-4,9-dihydrothieno[2,3-g]isoquinolin-2-yl)acrylate]",,,,
0.04 µM,0.31 µM,0.58 µM,0.48 µM,0.03 µM,0.1 µM,,,"CC(c1cc2c(s1)C(=O)c1ccncc1C2=O)N1CCOCC1 (stereo not drawn) [Example 23, 2-[1-(morpholin-4-yl)ethyl]thieno[2,3-g]isoquinoline-4,9-dione]",,,,
0.04 µM,0.06 µM,0.51 µM,0.08 µM,0.03 µM,0.06 µM,,,"CC(=O)c1cc2c(o1)C(=O)c1ccncc1C2=O [Example 44, 2-acetylfuro[2,3-g]isoquinoline-4,9-dione]",,,,
0.05 µM,0.07 µM,0.73 µM,0.25 µM,0.09 µM,0.1 µM,,,"CC(=O)c1cc2c(s1)C(=O)c1ncccc1C2=O [Example 36, 2-acetylthieno[3,2-g]quinoline-4,9-dione]",,,,
0.34 µM,0.55 µM,0.68 µM,0.63 µM,0.46 µM,0.57 µM,,,"O=C1c2cc(CN3CCOCC3)sc2C(=O)c2cccnc21 [Example 4, 2-(morpholin-4-ylmethyl)thieno[2,3-g]quinoline-4,9-dione]",,,,
0.08 µM,0.09 µM,0.84 µM,0.43 µM,0.49 µM,0.39 µM,,,"CC(O)c1cc2c(o1)C(=O)c1ncccc1C2=O (stereo not drawn) [Example 51, 2-(1-hydroxyethyl)furo[3,2-g]quinoline-4,9-dione]",,,,
0.05 µM,0.26 µM,0.41 µM,0.17 µM,0.05 µM,0.36 µM,,,"CC(=O)c1oc2c(c1C(=O)N1CCOCC1)C(=O)c1cnccc1C2=O [Example 47, 2-acetyl-3-(morpholin-4-carbonyl)furo[2,3-g]isoquinoline-4,9-dione]",,,,
0.5 µM,0.39 µM,0.92 µM,0.57 µM,0.54 µM,0.45 µM,,,"CCN(Cc1cc2c(s1)C(=O)c1cccnc1C2=O)C1CCCCC1 [Example 5, 2-{[cyclohexyl(ethyl)amino]methyl}thieno[2,3-g]quinoline-4,9-dione]",,,,
